“And” between values parts separate entries of the source, which are not always exact repeats. Equal values may be shown once. After the bases stand the sugars from the 5' end (letter, count) and the backbone: PS all phosphorothioate, else s phosphorothioate and o phosphodiester by linkage. Methylation of C is not given here. e = 2'-O-(2-methoxyethyl) (MOE); k = constrained ethyl (cEt); d = 2'-deoxy (DNA)
Molecular target: SOD1
Details: ASO

Sequence: GTGTTTAATGTTTATC (sugars ekddddddddekekee, linkages s1 o1 s8 o3 s2)
- target mRNA inhibition (A431, 0.12 µM): 10%
- target mRNA inhibition (A431, 0.6 µM): 32%
- target mRNA inhibition (A431, 3 µM): 66%
- target mRNA inhibition (A431, 15 µM): 79%
- target mRNA inhibition (HepG2, 0.222 µM): 40%
- target mRNA inhibition (HepG2, 0.667 µM): 63%
- target mRNA inhibition (HepG2, 2 µM): 76%
- target mRNA inhibition (HepG2, 6 µM): 86%

Sequence: GTTTAATACCCATCTGT (sugars e3 k2 d7 k2 e3, PS)
- target mRNA inhibition (HepG2, 3 µM): 17%

Sequence: GTTTATCAGGATACATT (sugars e2 k2 d9 k2 e2, PS)
- target mRNA inhibition (HepG2, 0.1875 µM): 38%
- target mRNA inhibition (HepG2, 0.75 µM): 74%
- target mRNA inhibition (HepG2, 3 µM): 89%
- target mRNA inhibition (HepG2, 4 µM): 88%
- target mRNA inhibition (HepG2, 12 µM): 95%

Sequence: GTTTCTCACTACAGGTA (sugars e2 k2 d8 k2 e3, PS)
- target mRNA inhibition (HepG2, 5 µM): 25%

Sequence: GTTTCTCACTACAGGTA (sugars e2 k2 d9 k2 e2, PS)
- target mRNA inhibition (HepG2, 5 µM): 38%

Sequence: GTTTCTCACTACAGGTACTT (sugars e5 d10 e5, PS)
- target mRNA inhibition (HepG2, 5 µM): 30%

Sequence: GTTTTTATTCACAGGCT (sugars e3 k2 d7 k2 e3, PS)
- target mRNA inhibition (HepG2, 3 µM): 10%

Sequence: TAAGTGCCATACAGGGT (sugars e2 k2 d9 k2 e2, PS)
- target mRNA inhibition (HepG2, 5 µM): 35%

Sequence: TAATAAGTGCCATACAG (sugars e2 k2 d8 k2 e3, PS)
- target mRNA inhibition (HepG2, 5 µM): 22%

Sequence: TAATACCCATCTGTGAT (sugars e2 k2 d8 k2 e3, PS)
- target mRNA inhibition (HepG2, 5 µM): 25%

Sequence: TAATACCCATCTGTGAT (sugars e2 k2 d9 k2 e2, PS)
- target mRNA inhibition (HepG2, 5 µM): 28%

Sequence: TACAAATCTTCCAAGTG (sugars e3 k2 d7 k2 e3, PS)
- target mRNA inhibition (HepG2, 3 µM): 17%

Sequence: TACAGGGTTTTTATTCA (sugars e3 k2 d7 k2 e3, PS)
- target mRNA inhibition (HepG2, 3 µM): 11%

Sequence: TACAGGTACTTTAAAGC (sugars e2 k2 d8 k2 e3, PS)
- target mRNA inhibition (HepG2, 5 µM): 23%

Sequence: TACATTTCTACAGCTA (sugars kekeddddddddekek, linkages s1 o3 s8 o1 s2)
- target mRNA inhibition (A431, 0.12 µM): 0%
- target mRNA inhibition (A431, 0.6 µM): 13%
- target mRNA inhibition (A431, 3 µM): 36%
- target mRNA inhibition (A431, 15 µM): 59%

Sequence: TAGCCTCATAATAAGTG (sugars e2 k2 d9 k2 e2, PS)
- target mRNA inhibition (HepG2, 5 µM): 27%

Sequence: TCACACAATTACACTTTTAA (sugars e5 d10 e5, PS)
- target mRNA inhibition (HepG2, 5 µM): 15%

Sequence: TCACAGGCTTGAATGAC (sugars e2 k2 d8 k2 e3, PS)
- target mRNA inhibition (HepG2, 5 µM): 28%

Sequence: TCACAGGCTTGAATGAC (sugars e2 k2 d9 k2 e2, PS)
- target mRNA inhibition (HepG2, 5 µM): 46%

Sequence: TCACTACAGGTACTTTA (sugars e2 k2 d8 k2 e3, PS)
- target mRNA inhibition (HepG2, 5 µM): 27%

Sequence: TCACTACAGGTACTTTA (sugars e2 k2 d9 k2 e2, PS)
- target mRNA inhibition (HepG2, 5 µM): 35%

Sequence: TCACTGGTCCATTACTT (sugars e3 k2 d7 k2 e3, PS)
- target mRNA inhibition (HepG2, 3 µM): 15%

Sequence: TCAGACTACATCCAAGG (sugars e2 k2 d8 k2 e3, PS)
- target mRNA inhibition (HepG2, 0.1875 µM): 37%
- target mRNA inhibition (HepG2, 0.75 µM): 71%
- target mRNA inhibition (HepG2, 3 µM): 81%
- target mRNA inhibition (HepG2, 4 µM): 79%
- target mRNA inhibition (HepG2, 12 µM): 92%

Sequence: TCAGACTACATCCAAGG (sugars e2 k2 d9 k2 e2, PS)
- target mRNA inhibition (HepG2, 0.1875 µM): 0%
- target mRNA inhibition (HepG2, 0.75 µM): 47%
- target mRNA inhibition (HepG2, 3 µM): 75%
- target mRNA inhibition (HepG2, 4 µM): 78%
- target mRNA inhibition (HepG2, 12 µM): 90%

Sequence: TCATAATAAGTGCCATA (sugars e2 k2 d8 k2 e3, PS)
- target mRNA inhibition (HepG2, 5 µM): 28%

Sequence: TCATAATAAGTGCCATA (sugars e2 k2 d9 k2 e2, PS)
- target mRNA inhibition (HepG2, 5 µM): 34%

Sequence: TCCAAGGGAATGTTTAT (sugars e3 k2 d7 k2 e3, PS)
- target mRNA inhibition (HepG2, 3 µM): 32%

Sequence: TCCAAGTGATCATAAAT (sugars e2 k2 d8 k2 e3, PS)
- target mRNA inhibition (HepG2, 5 µM): 42%

Sequence: TCCACCTTTGCCCAAGT (sugars e3 k2 d7 k2 e3, PS)
- target mRNA inhibition (HepG2, 3 µM): 88%

Sequence: TCGCCCTTCAGCACGCA (sugars e2 k2 d9 k2 e2, PS)
- target mRNA inhibition (HepG2, 4 µM): 63% and 60% and 54%
- target mRNA inhibition (HepG2, 5 µM): 61% and 58% and 71%
- target mRNA inhibition (HepG2, 12 µM): 74%

Sequence: TCGCCCTTCAGCACGCA (sugars e3 k2 d7 k2 e3, PS)
- target mRNA inhibition (HepG2, 3 µM): 31%

Sequence: TCTCACTACAGGTACTT (sugars e2 k2 d8 k2 e3, PS)
- target mRNA inhibition (HepG2, 5 µM): 42%

Sequence: TCTGGATAGAGGATTAA (sugars e3 k2 d7 k2 e3, PS)
- target mRNA inhibition (HepG2, 3 µM): 25%
